According to publication PMC5504357, “Antifungal Potential of Copper(II), Manganese(II) and Silver(I) 1,10-Phenanthroline Chelates Against Multidrug-Resistant Fungal Species Forming the Candida haemulonii Complex: Impact on the Planktonic and Biofilm Lifestyles” (Frontiers in Microbiology, 2017):
Like-named read-outs stand apart in the source and are kept apart here.

How the values were obtained:
[1] = tested on: Candida haemulonii complex; assay: Biofilm-growing cells, overall across isolates; format: cell-based; details: for Overall GM-bMIC: geometric mean across strains, values marked * do not include LIP Ch4 (>512)
Description: (§1) The effect of the compounds on biofilm-growing cells was determined using the previously described microtiter-based technique (Ramage et al., [2001]). The fungi (10^6 yeast cells) were incubated for 48 h at 37°C in 96-well polystyrene microtiter plates (Corning®, Corning Incorporated, USA) containing Sabouraud-dextrose broth to accommodate biofilm formation. Following biofilm formation, the culture medium was aspirated and non-adherent cells removed by thoroughly washing the wells three times with sterile PBS (0.15 M NaCl, 0.01 M phosphate buffer, pH 7.2). Afterwards, the compounds, at the same concentrations used in the planktonic assays, were added to the wells, and the plates were incubated for further 48 h at 37°C. The metabolic activity was then evaluated using a colorimetric assay that measures the metabolic reduction of 2,3-bis (2-methoxy-4-nitro-5-sulfophenyl)-5-[(phenylamino) carbonyl]-2H-tetrazolium hydroxide (XTT; Sigma-Aldrich) to a water-soluble, brown formazan product (Peeters et al., [2008]). The biofilm MIC (bMIC) for each compound was established as the minimal concentration capable of inhibiting 50% of metabolic activity when compared to compound-free wells (Ziccardi et al., [2015]).

[2] = tested on: Candida haemulonii; assay: Biofilm-growing cells, XTT assay, bMIC; format: cell-based; details: for GM-bMIC: geometric mean, C. haemulonii isolates, values marked * do not include LIP Ch4 (>512); for bMIC: mature biofilm, 48 h, 50% inhibition of metabolic activity
Description: as §1

[3] = tested on: Candida duobushaemulonii; assay: Biofilm-growing cells, XTT assay, bMIC; format: cell-based; details: for GM-bMIC: geometric mean, C. duobushaemulonii isolates; for bMIC: mature biofilm, 48 h, 50% inhibition of metabolic activity
Description: as §1

[4] = tested on: Candida haemulonii var. vulnera; assay: Biofilm-growing cells, XTT assay, bMIC; format: cell-based; details: for GM-bMIC: geometric mean, C. haemulonii var. vulnera isolates; for bMIC: mature biofilm, 48 h, 50% inhibition of metabolic activity
Description: as §1

[5] = tested on: Candida haemulonii; assay: Planktonic growth, broth microdilution (CLSI M27-A3), MIC; format: cell-based; details: for GM-MIC: geometric mean of three C. haemulonii isolates; for MIC: planktonic, 48 h, 37°C
Procedure, shortened: (§2)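 Isolates were precultured in Sabouraud-dextrose with shaking for 48 h at 37°C. Test agents were then serially diluted in RPMI 1640 (0.0625-32 mg/L) per CLSI M27-A3. Plates were incubated 48 h at 37°C and scored visually for the lowest growth-free concentration, with a geometric mean across isolates.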

[6] = tested on: Candida duobushaemulonii; assay: as above; format: cell-based; details: for GM-MIC: geometric mean of three C. duobushaemulonii isolates; for MIC: planktonic, 48 h, 37°C
Procedure, shortened: as §2

[7] = tested on: Candida haemulonii var. vulnera; assay: as above; format: cell-based; details: for GM-MIC: geometric mean of three C. haemulonii var. vulnera isolates; for MIC: planktonic, 48 h, 37°C
Procedure, shortened: as §2

[8] = tested on: C. haemulonii complex; assay: Planktonic growth, overall across all nine isolates; format: cell-based, Candida haemulonii complex; details: geometric mean across all nine strains; for MIC: in μM, read-out: Overall GM-MIC
Procedure, shortened: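 Pooled figure: geometric mean of MICs from all nine complex isolates. Individual MICs came from 48 h, 37°C RPMI 1640 microdilution cultures (CLSI M27-A3, 0.0625-32 mg/L), judged by eye as no growth; DMSO vehicle dilutions ran alongside.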

[9] = tested on: A549 cells; assay: Mammalian cell toxicity (MTT assay) and selectivity index; format: cell-based, Human
Procedure, shortened: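 A549 cells were exposed to compounds (0.0313–512 μg/mL) in DMEM for 48 h at 37 °C, 5% CO2. Viability was measured by MTT (3 h, dark), with formazan dissolved in DMSO and read at 450 nm. CC50 was derived, and SI calculated as A549 CC50 divided by C. haemulonii complex GM-MIC.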

| SMILES | Overall GM-bMIC [1] [mg/L] | GM-bMIC [2] | bMIC ([2]; isolate LIP Ch4) [mg/L] | bMIC ([2]; isolate LIP Ch7) [mg/L] | bMIC ([2]; isolate LIP Ch14) [mg/L] | GM-bMIC [3] [mg/L] | bMIC ([3]; isolate LIP Ch1) [mg/L] | GM-bMIC [4] [mg/L] | bMIC ([4]; isolate LIP Ch9) [mg/L] | bMIC ([4]; isolate LIP Ch13) [mg/L] | GM-MIC [5] [µg/mL] | MIC ([5]; isolate LIP Ch4) [µg/mL] | MIC ([5]; isolate LIP Ch7) [µg/mL] | MIC ([5]; isolate LIP Ch12) [µg/mL] | GM-MIC [6] [µg/mL] | MIC ([6]; isolate LIP Ch1) [µg/mL] | MIC ([6]; isolate LIP Ch6) [µg/mL] | MIC ([6]; isolate LIP Ch8) [µg/mL] | GM-MIC [7] [µg/mL] | MIC ([7]; isolate LIP Ch5) [µg/mL] | further results |
| --- | --- | --- | --- | --- | --- | --- | --- | --- | --- | --- | --- | --- | --- | --- | --- | --- | --- | --- | --- | --- | --- |
| O.O.O.O.O.O.O=C([O-])CCCCCCC(=O)[O-].O=C([O-])CCCCCCC(=O)[O-].O=C([O-])CCCCCCC(=O)[O-].O=C([O-])CCCCCCC(=O)[O-].[Mn+2].[Mn+2].[Mn+2].[Mn+2].c1cnc2c(c1)ccc1cccnc12.c1cnc2c(c1)ccc1cccnc12.c1cnc2c(c1)ccc1cccnc12.c1cnc2c(c1)ccc1cccnc12.c1cnc2c(c1)ccc1cccnc12.c1cnc2c(c1)ccc1cccnc12.c1cnc2c(c1)ccc1cccnc12.c1cnc2c(c1)ccc1cccnc12 [compound 13, [Mn2(oda)(phen)4(H2O)2][Mn2(oda)(phen)4(oda)2].4H2O] | 8.72 | 22.63^* mg/L | >512 | 32 | 16 | 5.04 | 4 | 8 | 4 | 8 | 2 | 2 | 2 | 2 | 2.52 | 2 | 4 | 2 | 2 | 2 | bMIC ([3]; isolate LIP Ch6): 4 mg/L; bMIC ([3]; isolate LIP Ch8): 8 mg/L; bMIC ([4]; isolate LIP Ch5): 16 mg/L; MIC ([7]; isolate LIP Ch9): 2 µg/mL; MIC ([7]; isolate LIP Ch11): 2 µg/mL; Overall GM-MIC [8]: 2.16 µg/mL; MIC [8]: 0.87 µM; A549 (CC50) ([9]; MTT, 48 h incubation): >512 µg/mL |
| O.O.O=C([O-])c1ccccc1C(=O)[O-].[Mn+2].c1cnc2c(c1)ccc1cccnc12 [compound 8, [Mn(ph)(phen)(H2O)2]] | 11.31 | 8^* mg/L | >512 | 4 | 16 | 10.08 | 16 | 16 | 16 | 8 | 5.04 | 8 | 4 | 4 | 5.04 | 8 | 4 | 4 | 4 | 4 | Overall GM-bMIC ([1]; in μM): 25.98 µM; bMIC ([3]; isolate LIP Ch6): 8 mg/L; bMIC ([3]; isolate LIP Ch8): 8 mg/L; bMIC ([4]; isolate LIP Ch5): 32 mg/L; MIC ([7]; isolate LIP Ch9): 4 µg/mL; MIC ([7]; isolate LIP Ch11): 4 µg/mL; Overall GM-MIC [8]: 4.67 µg/mL; MIC [8]: 10.71 µM; A549 (CC50) [9]: 234.51 µg/mL |
| CCO.O=C([O-])CCCCCCC(=O)[O-].[Cu+2].[Cu+2].[O-][Cl+3]([O-])([O-])[O-].[O-][Cl+3]([O-])([O-])[O-].c1cnc2c(c1)ccc1cccnc12.c1cnc2c(c1)ccc1cccnc12.c1cnc2c(c1)ccc1cccnc12.c1cnc2c(c1)ccc1cccnc12 [compound 5, [Cu2(oda)(phen)4](ClO4)2.2.76H2O.EtOH] | 17.28 | 20.16 mg/L | 32 | 16 | 16 | 16 | 32 | 16 | 8 | 16 | 10.08 | 8 | 8 | 16 | 8 | 8 | 8 | 8 | 10.08 | 8 | Overall GM-bMIC ([1]; in μM): 13.19 µM; bMIC ([3]; isolate LIP Ch6): 8 mg/L; bMIC ([3]; isolate LIP Ch8): 16 mg/L; bMIC ([4]; isolate LIP Ch5): 32 mg/L; MIC ([7]; isolate LIP Ch9): 16 µg/mL; MIC ([7]; isolate LIP Ch11): 8 µg/mL; Overall GM-MIC [8]: 9.33 µg/mL; MIC [8]: 7.09 µM; A549 (CC50) ([9]; MTT, 48 h incubation): 0.98 µg/mL |
| O.O.O.O.O=C1C(=O)c2cccnc2-c2ncccc21.O=C1C(=O)c2cccnc2-c2ncccc21.O=C1C(=O)c2cccnc2-c2ncccc21.[Cu+2].[O-][Cl+3]([O-])([O-])[O-].[O-][Cl+3]([O-])([O-])[O-] [compound 6, [Cu(phendione)3](ClO4)2.4H2O] | 27.43 | 50.80 mg/L | 256 | 32 | 16 | 12.70 | 16 | 32 | 32 | 32 | 16 | 16 | 16 | 16 | 8 | 8 | 16 | 4 | 6.35 | 4 | Overall GM-bMIC ([1]; in μM): 28.42 µM; bMIC ([3]; isolate LIP Ch6): 16 mg/L; bMIC ([3]; isolate LIP Ch8): 8 mg/L; bMIC ([4]; isolate LIP Ch5): 32 mg/L; MIC ([7]; isolate LIP Ch9): 8 µg/mL; MIC ([7]; isolate LIP Ch11): 8 µg/mL; Overall GM-MIC [8]: 9.33 µg/mL; MIC [8]: 9.65 µM; A549 (CC50) ([9]; MTT, 48 h incubation): 0.68 µg/mL |
| O.O.O.O.O.O=C([O-])c1ccc(C(=O)[O-])cc1.[Mn+2].c1cnc2c(c1)ccc1cccnc12.c1cnc2c(c1)ccc1cccnc12 [compound 12, [Mn(tereph)(phen)2].5H2O] | 10.37 | 16^* mg/L | >512 | 16 | 16 | 16 | 32 | 5.04 | 4 | 16 | 4 | 4 | 4 | 4 | 4 | 4 | 4 | 4 | 4 | 4 | Overall GM-bMIC ([1]; in μM): 15.48 µM; bMIC ([3]; isolate LIP Ch6): 8 mg/L; bMIC ([3]; isolate LIP Ch8): 16 mg/L; bMIC ([4]; isolate LIP Ch5): 2 mg/L; MIC ([7]; isolate LIP Ch9): 4 µg/mL; MIC ([7]; isolate LIP Ch11): 4 µg/mL; Overall GM-MIC [8]: 4 µg/mL; MIC [8]: 5.96 µM; A549 (CC50) ([9]; MTT, 48 h incubation): 251.94 µg/mL |
| [Ag+].[O-][Cl+3]([O-])([O-])[O-].c1cnc2c(c1)ccc1cccnc12.c1cnc2c(c1)ccc1cccnc12 [compound 17, [Ag(phen)2]ClO4] | 12.34 | 20.16 mg/L | 32 | 32 | 8 | 10.08 | 16 | 8 | 0.5 | 8 | 1 | 1 | 1 | 1 | 1.59 | 2 | 1 | 2 | 0.63 | 1 | decrease in activity on going from planktonic to biofilm cells ([1]; biofilm MIC versus planktonic MIC): 12.3 fold; Overall GM-bMIC ([1]; in μM): 21.73 µM; MIC ([7]; isolate LIP Ch9): 0.5 µg/mL; MIC ([7]; isolate LIP Ch11): 0.5 µg/mL; Overall GM-MIC [8]: 1 µg/mL; MIC [8]: 1.76 µM; A549 (CC50) ([9]; MTT, 48 h incubation): 2.07 µg/mL |
